In ChEMBL document CHEMBL4038296, “A bromopyrrole-containing diterpene alkaloid from the Okinawan marine sponge Agelas nakamurai activates the insulin pathway in Huh-7 human hepatoma cells by inhibiting protein tyrosine phosphatase 1B” (Bioorg Med Chem Lett, 2017):
The source made the active and inactive calls. No cut-off for these calls is given here.

Experiments:
[1] = target: RAC-alpha serine/threonine-protein kinase (Homo sapiens) (UniProt P31749); assay: Induction of Akt phosphorylation in human Huh7 cells up to 50 uM measured after 2 hrs by Western blot method; type: cell-based
Chain of RAC-alpha serine/threonine-protein kinase (Homo sapiens) (P31749 whole entry): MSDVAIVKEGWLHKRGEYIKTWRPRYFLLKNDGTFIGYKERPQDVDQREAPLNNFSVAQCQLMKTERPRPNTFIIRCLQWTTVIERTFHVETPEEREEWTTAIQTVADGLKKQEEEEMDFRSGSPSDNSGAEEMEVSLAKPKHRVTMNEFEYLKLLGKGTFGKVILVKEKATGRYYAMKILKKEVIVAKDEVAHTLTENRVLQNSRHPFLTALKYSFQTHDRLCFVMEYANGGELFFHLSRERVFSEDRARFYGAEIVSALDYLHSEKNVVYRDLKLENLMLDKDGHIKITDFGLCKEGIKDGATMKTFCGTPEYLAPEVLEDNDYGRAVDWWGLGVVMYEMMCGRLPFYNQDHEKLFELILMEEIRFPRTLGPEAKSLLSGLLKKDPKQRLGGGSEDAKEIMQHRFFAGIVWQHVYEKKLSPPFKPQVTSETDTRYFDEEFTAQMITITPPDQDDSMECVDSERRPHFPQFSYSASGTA

[2] = target: T1, Tyrosine-protein phosphatase non-receptor type 1 (Homo sapiens) (UniProt P18031); assay: Inhibition of PTP1B in human Huh7 cells assessed as increase in insulin-stimulated Akt phosphorylation preincubated for 1 to 2 hrs followed by insulin addition measured after 5 mins by Western blot method; type: cell-based
T1 sequence (whole entry): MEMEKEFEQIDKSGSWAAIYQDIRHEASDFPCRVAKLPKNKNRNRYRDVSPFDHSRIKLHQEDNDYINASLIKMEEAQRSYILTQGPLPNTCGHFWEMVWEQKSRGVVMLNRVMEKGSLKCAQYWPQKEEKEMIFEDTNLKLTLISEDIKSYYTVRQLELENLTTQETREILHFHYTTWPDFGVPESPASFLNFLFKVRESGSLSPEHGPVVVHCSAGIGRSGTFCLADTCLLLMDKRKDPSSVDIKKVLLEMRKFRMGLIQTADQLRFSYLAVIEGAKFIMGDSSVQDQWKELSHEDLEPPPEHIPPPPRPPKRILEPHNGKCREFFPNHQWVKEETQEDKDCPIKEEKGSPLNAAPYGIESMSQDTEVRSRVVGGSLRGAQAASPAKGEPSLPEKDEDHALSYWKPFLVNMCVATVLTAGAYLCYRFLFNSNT

[3] = target: RAC-alpha serine/threonine-protein kinase (Homo sapiens) (UniProt P31749); assay: Induction of Akt phosphorylation in human Huh7 cells measured after 2 hrs by Western blot method; type: cell-based
[4] = target: Dual specificity protein phosphatase 3 (Homo sapiens, UniProt P51452); assay: Inhibition of human recombinant VHR expressed in Escherichia coli using pNPP as substrate preincubated for 10 mins followed by substrate addition measured after 30 mins
Chain of Dual specificity protein phosphatase 3 (P51452 whole entry): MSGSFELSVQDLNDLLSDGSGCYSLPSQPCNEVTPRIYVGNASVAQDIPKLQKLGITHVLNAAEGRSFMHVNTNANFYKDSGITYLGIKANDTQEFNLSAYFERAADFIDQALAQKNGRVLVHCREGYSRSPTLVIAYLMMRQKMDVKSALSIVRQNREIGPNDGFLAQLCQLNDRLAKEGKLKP

[5] = target: T2, Receptor-type tyrosine-protein phosphatase C (Homo sapiens, UniProt P08575); assay: Inhibition of human recombinant CD45 using pNPP as substrate preincubated for 10 mins followed by substrate addition measured after 30 mins
T2 sequence (P08575 whole entry): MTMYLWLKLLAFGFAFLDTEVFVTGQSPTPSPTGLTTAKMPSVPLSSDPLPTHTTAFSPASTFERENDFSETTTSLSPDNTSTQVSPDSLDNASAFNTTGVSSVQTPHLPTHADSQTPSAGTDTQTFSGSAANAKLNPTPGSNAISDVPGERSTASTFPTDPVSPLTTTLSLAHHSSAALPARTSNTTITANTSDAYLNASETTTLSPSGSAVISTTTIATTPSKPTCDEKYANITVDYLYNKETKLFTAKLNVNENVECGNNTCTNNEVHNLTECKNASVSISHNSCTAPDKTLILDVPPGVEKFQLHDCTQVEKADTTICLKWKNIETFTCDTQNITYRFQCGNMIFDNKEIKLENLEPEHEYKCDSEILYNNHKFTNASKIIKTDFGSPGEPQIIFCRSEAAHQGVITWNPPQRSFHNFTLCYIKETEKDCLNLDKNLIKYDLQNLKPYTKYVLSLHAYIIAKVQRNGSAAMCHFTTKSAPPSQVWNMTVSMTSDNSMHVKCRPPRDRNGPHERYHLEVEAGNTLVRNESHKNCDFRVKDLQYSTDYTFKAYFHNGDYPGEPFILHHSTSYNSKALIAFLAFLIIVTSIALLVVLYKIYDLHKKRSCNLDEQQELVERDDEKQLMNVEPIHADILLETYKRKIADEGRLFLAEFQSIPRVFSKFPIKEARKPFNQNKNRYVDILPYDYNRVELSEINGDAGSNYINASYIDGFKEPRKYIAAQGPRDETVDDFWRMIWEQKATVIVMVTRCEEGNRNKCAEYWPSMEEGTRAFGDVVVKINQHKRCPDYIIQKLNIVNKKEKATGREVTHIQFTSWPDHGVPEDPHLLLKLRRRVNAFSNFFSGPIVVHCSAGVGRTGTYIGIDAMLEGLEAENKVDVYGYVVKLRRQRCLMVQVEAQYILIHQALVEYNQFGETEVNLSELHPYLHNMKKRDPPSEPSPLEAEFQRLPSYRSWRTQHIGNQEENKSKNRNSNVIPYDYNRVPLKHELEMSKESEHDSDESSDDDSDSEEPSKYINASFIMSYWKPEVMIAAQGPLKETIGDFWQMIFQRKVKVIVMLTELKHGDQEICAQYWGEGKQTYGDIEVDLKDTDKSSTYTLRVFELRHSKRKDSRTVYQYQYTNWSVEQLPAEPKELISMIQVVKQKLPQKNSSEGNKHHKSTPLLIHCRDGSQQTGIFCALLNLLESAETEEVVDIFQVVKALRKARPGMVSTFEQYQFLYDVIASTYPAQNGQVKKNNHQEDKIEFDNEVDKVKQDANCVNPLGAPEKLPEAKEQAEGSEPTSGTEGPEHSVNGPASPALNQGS

[6] = target: T3, Tyrosine-protein phosphatase non-receptor type 2 (Homo sapiens, UniProt P17706); assay: Inhibition of human recombinant TCPTP (1 to 317 residues) expressed in Escherichia coli using pNPP as substrate preincubated for 10 mins followed by substrate addition measured after 30 mins
T3 sequence (P17706 whole entry): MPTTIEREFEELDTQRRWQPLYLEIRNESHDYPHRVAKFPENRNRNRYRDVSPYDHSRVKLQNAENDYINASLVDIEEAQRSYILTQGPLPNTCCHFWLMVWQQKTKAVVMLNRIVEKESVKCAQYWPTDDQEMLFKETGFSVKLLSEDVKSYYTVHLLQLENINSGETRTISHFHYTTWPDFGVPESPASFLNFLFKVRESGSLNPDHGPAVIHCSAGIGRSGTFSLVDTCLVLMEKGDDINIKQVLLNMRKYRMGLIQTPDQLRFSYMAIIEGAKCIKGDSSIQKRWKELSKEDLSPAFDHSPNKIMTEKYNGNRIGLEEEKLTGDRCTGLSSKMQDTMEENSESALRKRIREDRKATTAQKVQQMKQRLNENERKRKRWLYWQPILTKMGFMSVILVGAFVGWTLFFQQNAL

[7] = target: T4, Tyrosine-protein phosphatase non-receptor type 1 (Homo sapiens, UniProt P18031); assay: Inhibition of human recombinant PTP1B (1 to 322 residues) expressed in Escherichia coli using pNPP as substrate preincubated for 10 mins followed by substrate addition measured after 30 mins
T4 sequence (P18031 whole entry): T1 sequence (whole entry)

[8] = target: RAC-alpha serine/threonine-protein kinase (Homo sapiens) (UniProt P31749); assay: Activation of AKT in human Huh7 cells assessed as increase in insulin-stimulated Akt phosphorylation preincubated for 1 to 2 hrs followed by insulin addition measured after 5 mins by Western blot method; type: cell-based

Row | Activity [1] | inhibition [2] | Activity [3] | IC50 [4] | IC50 [5] | IC50 [6] | IC50 [7] | Activity [8] | SMILES
1 | inactive | Dose-dependent effect | Dose-dependent effect |  |  |  |  |  | C/C(=C\Cn1c[n+](C)c2ncnc(N)c21)CC[C@]1(C)[C@@H](C)CC[C@@]2(C)C(COC(=O)c3cc(Br)c[nH]3)=CCC[C@@H]12
2 | inactive |  | Dose-dependent effect | > 19 µM | > 19 µM | > 19 µM | > 19 µM | Dose-dependent effect | C/C(=C\Cn1c[n+](C)c2ncnc(N)c21)CC[C@]1(C)[C@@H](C)CC[C@@]2(C)C(COC(=O)c3ccc[nH]3)=CCC[C@@H]12
3 |  |  |  | 13 µM | > 16 µM | > 16 µM | 15 µM |  | C/C(=C\C[n+]1cn(C)c2ncnc(N)c21)CC[C@]1(C)[C@@H](C)CC[C@@]2(C)C(COC(=O)c3cc(Br)c[nH]3)=CCC[C@@H]12
